We go through 49 compounds from US10815238B2, “Antimicrobial compounds and methods of making and using the same” (BIOVERSYS AG, priority 2013, dated 2020).

In this experiment the test system is Eschericia coli (E. coli) strain ATCC25922. Nature of the experiment: Standard microdilution assay, MIC against E. coli ATCC25922. It is filed as cell-based. As to conditions: Escherichia coli; E. coli strain ATCC25922, standard microdilution assay; cutoff 16 micrograms/mL; read-out: MIC E. Coli. In short, it runs like this:
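MIC determined by broth microdilution following CLSI protocols, with reference strains run in parallel for quality control. Activity scored +/− at a cutoff of 16 micrograms/mL.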
A general note: Broth dilution looks for growth in wells or tubes with falling amounts of substance.
For `C[C@H](N)CCCc1cc(Cl)c(F)c(-c2cc3cn(-c4ccc([C@H](C)NCC[C@@H](CN)NC(=N)N)cc4)c(=O)nc3[nH]2)c1` [Compound 271], the minimal inhibitory concentration (MIC) – broadly, the smallest concentration in the dilution series that meets the test's criterion for growth inhibition – is < 16 µg/mL. As for `C[C@H](N)CCCc1cc(Cl)c(F)c(-c2cc3cn(-c4ccc([C@H](C)NCC[C@@H](CNCc5nccs5)NC(=N)N)cc4)c(=O)nc3[nH]2)c1` [Compound 272], the MIC is < 16 µg/mL. As for `C[C@H](N)CCCc1cc(Cl)c(F)c(-c2cc3cn(-c4ccc(CN[C@@H](CO)CCNC(=N)N)cc4)c(=O)nc3[nH]2)c1` [Compound 273], the figure is < 16 µg/mL.

For the compound `C[C@H](N)CCCc1cc(OC(F)(F)F)c(F)c(-c2cc3cn(-c4ccc(CN[C@@H](CO)CCNC(=N)N)cc4)c(=O)nc3[nH]2)c1` [Compound 274], the MIC is < 16 µg/mL.

With `C[C@H](N)CCCc1cc(Cl)c(F)c(-c2cc3cn(-c4ccc([C@H](C)NCC[C@H](CCCO)NC(=N)N)cc4)c(=O)nc3[nH]2)c1` [Compound 275], the MIC is < 16 µg/mL. Take `C[C@H](N)CCCc1cc(OC(F)(F)F)c(F)c(-c2cc3cn(-c4ccc([C@H](C)NCC[C@H](CCCO)NC(=N)N)cc4)c(=O)nc3[nH]2)c1` [Compound 276]: the minimum inhibitory concentration (MIC) was < 16 µg/mL.

For `C[C@H](N)CCCc1cc(OC(F)(F)F)c(F)c(-c2cc3cn(-c4ccc([C@H](C)NCC[C@@H](CNCc5nccs5)NC(=N)N)cc4)c(=O)nc3[nH]2)c1` [Compound 277], the minimum inhibitory concentration (MIC) is < 16 µg/mL. For the compound `C[C@H](N)CCCc1cc(OC(F)(F)F)c(F)c(-c2cc3cn(-c4ccc([C@H](C)NCC[C@@H](CN)NC(=N)N)cc4)c(=O)nc3[nH]2)c1` [Compound 278], the MIC is < 16 µg/mL. As to `C[C@H](N)CCCc1cc(Cl)c(F)c(-c2cc3cn(-c4ccc([C@H](C)NCC[C@@H](Cn5cccn5)NC(=N)N)cc4)c(=O)nc3[nH]2)c1` [Compound 279], the minimal inhibitory concentration (MIC) was < 16 µg/mL. In the case of `COC(=O)C[C@H](CCN[C@@H](C)c1ccc(-n2cc3cc(-c4cc(CCC[C@H](C)N)cc(Cl)c4F)[nH]c3nc2=O)cc1)NC(=N)N` [Compound 280], the MIC is < 16 µg/mL. Regarding `C[C@H](N)CCCc1cc(Cl)c(F)c(-c2cc3cn(-c4ccc([C@H](C)NCC[C@@H](CCCN)NC(=N)N)cc4)c(=O)nc3[nH]2)c1` [Compound 281], the MIC was < 16 µg/mL. As for `C[C@H](N)CCCc1cc(Cl)c(F)c(-c2cc3cn(-c4ccc([C@H](C)NCC[C@H](CCCN)NC(=N)N)cc4)c(=O)nc3[nH]2)c1` [Compound 282], the MIC is < 16 µg/mL. With `C[C@H](N)CCCc1cc(OC(F)(F)F)c(F)c(-c2cc3cn(-c4ccc([C@H](C)NCC[C@@H](CCCN)NC(=N)N)cc4)c(=O)nc3[nH]2)c1` [Compound 283], the MIC is < 16 µg/mL.

For `C[C@H](N)CCCc1cc(OC(F)(F)F)c(F)c(-c2cc3cn(-c4ccc([C@H](C)NCC[C@H](CCCN)NC(=N)N)cc4)c(=O)nc3[nH]2)c1` [Compound 284], the MIC was < 16 µg/mL.

`C[C@H](N)CCCc1cc(Cl)c(F)c(-c2cc3cn(-c4ccc([C@@H]5CC[C@@H](CCNC(=N)N)N5)cc4)c(=O)nc3[nH]2)c1` [Compound 285]: the minimal inhibitory concentration (MIC) was < 16 µg/mL. Turning to `C[C@H](N)CCCc1cc(Cl)c(F)c(-c2[nH]c3nc(=O)n(-c4ccc([C@H](C)NCCCNC(=N)N)cc4)cc3c2Br)c1` [Compound 286], the MIC was < 16 µg/mL.

Consider `CSC[C@@H](CCN[C@@H](C)c1ccc(-n2cc3cc(-c4cc(CCC[C@H](C)N)cc(Cl)c4F)[nH]c3nc2=O)cc1)NC(=N)N` [Compound 287], for which the minimal inhibitory concentration (MIC) was < 16 µg/mL. As for `CSC[C@@H](CCN[C@@H](C)c1ccc(-n2cc3cc(-c4cc(CCC[C@H](C)N)cc(OC(F)(F)F)c4F)[nH]c3nc2=O)cc1)NC(=N)N` [Compound 288], the figure is < 16 µg/mL.

As to `C[C@H](N)CCCc1cc(Cl)c(F)c(-c2cc3cn(-c4ccc([C@H](C)NCC[C@H](CS(C)(=O)=O)NC(=N)N)cc4)c(=O)nc3[nH]2)c1` [Compound 289], the MIC was < 16 µg/mL. For the compound `C[C@H](N)CCCc1cc(Cl)c(F)c(-c2[nH]c3nc(=O)n(-c4ccc([C@H](C)NCCCNC(=N)N)cc4)cc3c2Cl)c1` [Compound 290], the MIC is < 16 µg/mL.

Regarding `C[C@H](N)CCCc1cc(Cl)c(F)c(-c2cc3cn(-c4ccc([C@H](C)N[C@H](CCO)CCNC(=N)N)cc4)c(=O)nc3[nH]2)c1` [Compound 291], the minimum inhibitory concentration (MIC) is < 16 µg/mL. For `C/C=C/C[C@H](CCN[C@@H](C)c1ccc(-n2cc3cc(-c4cc(CCC[C@H](C)N)cc(OC(F)(F)F)c4F)[nH]c3nc2=O)cc1)NC(=N)N` [Compound 292], the minimum inhibitory concentration (MIC) is < 16 µg/mL. As for `C[C@H](N)CCCc1cc(Cl)c(F)c(-c2cc3cn(-c4ccc([C@H](C)NCC[C@H](Cn5ccnn5)NC(=N)N)cc4)c(=O)nc3[nH]2)c1` [Compound 293], the figure is < 16 µg/mL; as for `C[C@H](N)CCCc1cc(OC(F)(F)F)c(F)c(-c2cc3cn(-c4ccc([C@H](C)NCC[C@H](Cn5ccnn5)NC(=N)N)cc4)c(=O)nc3[nH]2)c1` [Compound 294], < 16 µg/mL. In the case of `CC(=O)OC[C@H](N)CCCc1cc(Cl)c(F)c(-c2cc3cn(-c4ccc([C@H](C)NCCCNC(=N)N)cc4)c(=O)nc3[nH]2)c1` [Compound 295] it was < 16 µg/mL; in that of `C[C@H](NCCCNC(=N)N)c1ccc(-n2cc3cc(-c4cc(CCC[C@@H]5COC(=O)N5)cc(Cl)c4F)[nH]c3nc2=O)cc1` [Compound 296], > 16 µg/mL; in that of `C[C@H](N)CCCc1cc(Cl)c(F)c(-c2cc3cn(-c4ccc([C@H](C)NCC[C@@H](CC#N)NC(=N)N)cc4)c(=O)nc3[nH]2)c1` [Compound 297], < 16 µg/mL. `C[C@H](N)CCCc1cc(-c2cn3cc(-c4ccc([C@H](C)NCCCNC(=N)N)cc4)c(=O)nc3[nH]2)cc(C(F)(F)F)c1` [Compound 298]: the minimal inhibitory concentration (MIC) is < 16 µg/mL. With `CCOC(=O)N[C@@H](C)CCCc1cc(-c2cn3cc(-c4ccc([C@H](C)NCCCNC(=N)N)cc4)c(=O)nc3[nH]2)cc(C(F)(F)F)c1` [Compound 299], the MIC was < 16 µg/mL. With `C[C@H](NCCCNC(=N)N)c1ccc(-n2cc3cc(-c4cc(CCC[C@@H](N)COC(=O)c5ccccc5)cc(Cl)c4F)[nH]c3nc2=O)cc1` [Compound 300], the MIC is < 16 µg/mL. Turning to `C[C@H](N)CCCc1cc(Cl)c(F)c(-c2cc3cn(-c4ccc([C@H](C)NCC[C@H](Cn5cc(CN)nn5)NC(=N)N)cc4)c(=O)nc3[nH]2)c1` [Compound 301], the MIC was < 16 µg/mL. As to `C[C@H](N)CCCc1cc(Cl)c(F)c(-c2cn3cc(-c4ccc([C@H](C)NCCCNC(=N)N)cc4)c(=O)nc3[nH]2)c1` [Compound 302], the minimal inhibitory concentration (MIC) was < 16 µg/mL. `C[C@H](N)CCCc1cc(Cl)c(F)c(-c2cc3cn(-c4ccc([C@H](C)N[C@@H](CCO)CCNC(=N)N)cc4)c(=O)nc3[nH]2)c1` [Compound 303]: the MIC is < 16 µg/mL. Turning to `C[C@H](N)CCCc1cc(Cl)c(F)c(-c2cc3cn(-c4ccc([C@H](C)NCC[C@H](CN)NC(=N)N)cc4)c(=O)nc3[nH]2)c1` [Compound 304], the MIC was < 16 µg/mL. In the case of `C[C@H](N)CCCc1cc(OC(F)(F)F)c(F)c(-c2cc3cn(-c4ccc([C@H](C)NCC[C@H](CN)NC(=N)N)cc4)c(=O)nc3[nH]2)c1` [Compound 305], the minimal inhibitory concentration (MIC) is < 16 µg/mL.

Take `C[C@H](NCCCNC(=N)N)c1ccc(-n2cc3cc(-c4cc(CCC[C@@H](N)COC(=O)NCc5ccccc5)cc(Cl)c4F)[nH]c3nc2=O)cc1` [Compound 306]: the minimal inhibitory concentration (MIC) was < 16 µg/mL. As for `C[C@H](NCCCNC(=N)N)c1ccc(-n2cc3cc(-c4cc(CCC[C@@H](N)COC(=O)Nc5ccccc5)cc(Cl)c4F)[nH]c3nc2=O)cc1` [Compound 307], the figure is < 16 µg/mL; as for `C[C@H](NCCCNC(=N)N)c1ccc(-n2cc3cc(-c4cc(CCC[C@@H](N)COC(=O)CCC(=O)O)cc(Cl)c4F)[nH]c3nc2=O)cc1` [Compound 308], < 16 µg/mL; as for `C[C@H](NCCCNC(=N)N)c1ccc(-n2cc3cc(-c4cc(CCC[C@H](C)NC(=N)N)cc(Cl)c4F)[nH]c3nc2=O)cc1` [Compound 309], < 16 µg/mL. On to `C[C@H](N)CC[C@@H](O)c1cc(Cl)c(F)c(-c2cc3cn(-c4ccc([C@H](C)NCCCNC(=N)N)cc4)c(=O)nc3[nH]2)c1` [Compound 310], for which the MIC is < 16 µg/mL.

For the compound `C[C@H](N)CCCc1cc(OC(F)(F)F)c(F)c(-c2cc3cn(-c4ccc(CNCC[C@H](CN)NC(=N)N)cc4)c(=O)nc3[nH]2)c1` [Compound 311], the minimum inhibitory concentration (MIC) is < 16 µg/mL. Take `C[C@H](N)CCCc1cc(Cl)c(F)c(-c2cc3cn(-c4ccc([C@H](C)NCC[C@H](CCN)NC(=N)N)cc4)c(=O)nc3[nH]2)c1` [Compound 312]: the minimum inhibitory concentration (MIC) was < 16 µg/mL. As for `C[C@H](N)CCCc1cc(Cl)c(F)c(-c2cc3cn(-c4ccc([C@H](C)NCC[C@@H](CCN)NC(=N)N)cc4)c(=O)nc3[nH]2)c1` [Compound 313], the MIC was < 16 µg/mL. In the case of `C[C@H](N)CCCc1cc(Cl)c(F)c(-c2cc3cn(-c4ccc([C@H](C)NCC[C@H](CCC#N)NC(=N)N)cc4)c(=O)nc3[nH]2)c1` [Compound 314] it was < 16 µg/mL; in that of `C[C@H](N)CCCc1cc(OC(F)(F)F)c(F)c(-c2cc3cn(-c4ccc([C@H](C)NCC[C@H](CCC#N)NC(=N)N)cc4)c(=O)nc3[nH]2)c1` [Compound 315], < 16 µg/mL; in that of `CC(=O)Oc1ccccc1C(=O)OC[C@H](N)CCCc1cc(Cl)c(F)c(-c2cc3cn(-c4ccc([C@H](C)NCCCNC(=N)N)cc4)c(=O)nc3[nH]2)c1` [Compound 316], < 16 µg/mL. With `C[C@H](N)CCCc1cc(Cl)c(F)c(-c2cc3cn(-c4ccc([C@@H](C)NCCCNC(=N)N)cc4)c(=O)nc3[nH]2)c1` [Compound 317], the MIC was < 16 µg/mL.

Consider `C[C@H](N)CCCc1cc(Cl)c(F)c(-c2cc3cn(-c4ccc([C@@H](C)NCCCN)cc4)c(=O)nc3[nH]2)c1` [Compound 318], for which the MIC was < 16 µg/mL. As for `C[C@H](NCCCNC(=N)N)c1ccc(-n2cc3cc(-c4cc(CCC[C@@H](N)CN)cc(Cl)c4F)[nH]c3nc2=O)cc1` [Compound 319], the MIC was < 16 µg/mL.
